Data taken from ChEMBL document CHEMBL1139769, “PASS-predicted design, synthesis and biological evaluation of cyclic nitrones as nootropics” (Bioorg Med Chem Lett, 2007).

How the values were obtained:
Mus musculus [1] = experiment: Nootropic effect in Albino mouse assessed as decrease in transfer latency at 75 mg/kg, po after 24 hrs by elevated plus maze test; type: functional; set-up: scale not given: the % may be the effect or the level left
[2] = Partition coefficient, log P of the compound; type: physicochemical; conditions: octanol/water
Mus musculus [3] = experiment: Nootropic effect in Albino mouse assessed as decrease in transfer latency at 200 mg/kg, ip after 24 hrs by elevated plus maze test; type: functional; set-up: scale not given: the % may be the effect or the level left; conditions: route intraperitoneal

| SMILES | Activity (Mus musculus [1]) [%] | logP [2] | Activity (Mus musculus [3]) [%] |
| --- | --- | --- | --- |
| O=[N+]([O-])c1ccc(C2=[N+]([O-])C(c3ccccc3)N(C3CCCCC3)C2)cc1 (centres undefined) | 51.6 | 2.41 |  |
| CN(C)c1ccc(C2N(Cc3ccccc3)CC(c3ccc([N+](=O)[O-])cc3)=[N+]2[O-])cc1 (centres undefined) | 10.8 | 2.02 |  |
| COc1ccc(N2CC(c3ccc([N+](=O)[O-])cc3)=[N+]([O-])C2c2ccc(N(C)C)cc2)cc1 (centres undefined) | 40.4 | 2.32 |  |
| O=[N+]([O-])c1ccc(C2=[N+]([O-])C(c3ccccc3)N(c3ccccc3)C2)cc1 (centres undefined) | 36.4 | 2.45 |  |
| NC(=O)CN1CCCC1=O [PIRACETAM] |  |  | 51.3 |
